This passage reports IC50 and Ki results from US9732094B2, “Arylquinazolines” (Merck Patent GmbH, priority 2013, dated 2017).

Data set [1] addresses DNA-PK (Homo sapiens (Human), UniProt P78527). The experiment in a line: DNA-PK assay (biochemical), flashplate 33P-ATP kinase assay. Put shortly: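 Reactions ran in streptavidin-coated flashplates and were halted by 200 mM EDTA, with a further 30 min at room temperature before saline washing.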
Data set [2] deals with DNA-PK phosphorylation at serine 2056 (Homo sapiens (Human), UniProt P78527). Nature of the data set: DNA-PK phosphorylation at serine 2056 (cellular), bleomycin-treated HCT116 cells, ELISA. It is filed as cell-based. Conditions: read-out: IC50 pDNA-PK. In a few lines: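 Chemiluminescent ELISA read-out; phospho-specific signal normalised to total DNA-PKcs. Cells (HCT116) exposed 6 h to test compound plus 10 μM bleomycin to induce double-strand breaks; DMSO control served as blank.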
Background: In an ELISA, binding on a coated surface is turned into a signal by an enzyme label.

Data set [3] has as its target Kv11.1 (hERG) (Homo sapiens (Human), UniProt Q12809). Nature of the data set: Kv11.1 (hERG) ion channel activity (patch clamp assay), HEK293 cells transfected with hERG gene. On the technique in general: Block of hERG is tested as a sign of cardiac risk.
[4] abbreviates: cellular DNA-PK phosphorylation at serine 2056, HCT116.
Where [5] appears, read: read-out: Ki [Kv1.11 hERG], hERG patch clamp assay (cells without asterisk).
Setting [6] is: Ki [Kv1.11 hERG], hERG patch clamp assay (cells without asterisk).
[7] abbreviates: cellular, HCT116 cells, 10 μM bleomycin, six hours.
The mark [8] stands for this setting: Ki [Kv1.11 hERG], patch clamp, HEK293 transfected with hERG gene.
[9] abbreviates: read-out: Ki [Kv1.11 hERG], patch clamp, HEK293 transfected with hERG gene.

A word on the IC50: it is the point on the concentration scale where inhibition reaches its midpoint. A word on the Ki: it is the equilibrium dissociation constant of an inhibitor or competing ligand from its target.

SMILES strings stand for the structures. Read-outs that look alike come from different tables or passages of the source.

Sequence of Kv11.1 (hERG) (Q12809 whole entry): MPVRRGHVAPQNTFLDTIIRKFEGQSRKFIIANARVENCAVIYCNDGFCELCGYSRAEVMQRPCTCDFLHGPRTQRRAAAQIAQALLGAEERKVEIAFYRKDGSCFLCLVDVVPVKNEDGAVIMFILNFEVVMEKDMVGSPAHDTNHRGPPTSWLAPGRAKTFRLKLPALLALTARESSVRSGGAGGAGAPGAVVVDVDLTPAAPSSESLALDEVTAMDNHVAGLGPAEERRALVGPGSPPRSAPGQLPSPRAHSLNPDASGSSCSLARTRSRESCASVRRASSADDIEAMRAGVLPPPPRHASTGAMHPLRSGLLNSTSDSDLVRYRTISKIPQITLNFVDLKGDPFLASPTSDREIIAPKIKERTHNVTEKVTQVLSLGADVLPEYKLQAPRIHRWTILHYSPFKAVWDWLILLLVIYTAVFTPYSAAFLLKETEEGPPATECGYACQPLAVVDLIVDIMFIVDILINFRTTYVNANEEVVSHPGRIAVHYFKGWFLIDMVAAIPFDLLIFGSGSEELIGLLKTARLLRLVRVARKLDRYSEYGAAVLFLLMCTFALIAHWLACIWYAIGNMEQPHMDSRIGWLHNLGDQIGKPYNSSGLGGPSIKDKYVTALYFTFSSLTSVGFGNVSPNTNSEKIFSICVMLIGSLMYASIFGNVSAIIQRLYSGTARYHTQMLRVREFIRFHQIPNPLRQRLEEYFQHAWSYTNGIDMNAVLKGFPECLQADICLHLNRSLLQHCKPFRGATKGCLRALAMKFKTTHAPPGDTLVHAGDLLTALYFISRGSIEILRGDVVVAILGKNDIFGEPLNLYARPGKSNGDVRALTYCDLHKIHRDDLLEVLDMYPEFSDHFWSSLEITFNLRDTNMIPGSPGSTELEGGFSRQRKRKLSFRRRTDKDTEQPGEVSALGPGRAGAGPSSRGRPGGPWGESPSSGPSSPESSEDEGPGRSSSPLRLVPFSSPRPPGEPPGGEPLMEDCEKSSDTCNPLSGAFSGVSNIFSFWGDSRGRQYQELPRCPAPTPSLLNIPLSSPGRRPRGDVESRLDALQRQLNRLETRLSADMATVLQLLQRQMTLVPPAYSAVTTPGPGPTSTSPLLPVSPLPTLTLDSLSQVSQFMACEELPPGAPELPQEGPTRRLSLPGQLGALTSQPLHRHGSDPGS

`COc1ccc(C(C(N)=O)c2cc(-c3ncnc4cc(N5CCOCC5)ccc34)c(F)cc2F)nn1` (stereo not drawn) [Example 306, 2-[2,4-Difluoro-5-(7-morpholin-4-yl-quinazolin-4-yl)-phenyl]-2-(6-methoxy-pyridazin-3-yl)acetamide]: the IC50 was 0.007 to 0.03 µM in data set [1] (biochemical DNA-PK assay) and 10 to 30 µM in data set [2] (setting [4]). Further, in data set [3] (setting [5]), the Ki was over 25 µM.
On to `CCOc1cccnc1C(O)c1ccc(F)c(-c2ncnc3cc(N4CCOCC4)ccc23)c1` (stereo not drawn) [Example 463, (3-Ethoxy-pyridin-2-yl)-[4-fluoro-3-(7-morpholin-4-yl-quinazolin-4-yl)-phenyl]methanol], for which the IC50 is 0.003 to 0.007 µM in data set [1] (biochemical DNA-PK assay) and under 0.5 µM in data set [2] (setting [4]). In data set [3] (setting [6]), this molecule had a Ki of 15 to 25 µM.
As for `OC(c1cc(-c2ncnc3cc(N4CCOCC4)ccc23)c(F)cc1Cl)c1ncnc2sccc12` (stereo not drawn) [Example 429, [2-Chloro-4-fluoro-5-(7-morpholin-4-yl-quinazolin-4-yl)-phenyl]thieno[2,3-d}-pyrimidin-4-yl-methanol], the IC50 in data set [1] (biochemical DNA-PK assay) is under 0.003 µM; in data set [2] (setting [4]), under 0.5 µM. Moreover, the Ki in data set [3] (setting [5]) is under 10 µM.
Consider `OC(c1cc(-c2ncnc3cc(N4CCOCC4)ccc23)ccc1Cl)c1ncnc2occc12` (stereo not drawn) [Example 416, [2-Chloro-5-(7-morpholin-4-yl-quinazolin-4-yl)-phenyl]furo[2,3-d}-pyrimidin-4-yl-methanol], for which the results for the IC50 in data set [1] (biochemical DNA-PK assay) and in data set [2] (setting [4]) were 0.003 to 0.007 µM and 0.5 to 5 µM, respectively. The same molecule displayed a Ki in data set [3] (setting [6]) of 10 to 15 µM.
Consider `OC(c1ccc2nccn2n1)c1cc(-c2ncnc3cc(N4CCOCC4)ccc23)c(F)cc1F` (stereo not drawn) [Example 51, [2,4-Difluoro-5-(7-morpholin-4-yl-quinazolin-4-yl)phenyl]-imidazo[1,2-b]pyridazin-6-ylmethanol], for which the IC50 in data set [1] (enzymatic, 5 μM ATP) is under 0.003 µM; in data set [2] (setting [7]) it was under 0.5 µM. Also, the Ki in data set [3] (setting [8]) lay in the range of 15 to 25 µM.
Regarding `NC(=O)C(c1ccc2nccn2n1)c1cc(-c2ncnc3cc(N4CCOCC4)ccc23)c(F)cc1Cl` (stereo not drawn) [Example 323, 2-[2-Chloro-4-fluoro-5-(7-morpholin-4-yl-quinazolin-4-yl)-phenyl]-2-imidazo-[1,2-b]pyridazin-6-yl-acetamide], the half-inhibitory concentration (IC50) lay in the range of 0.003 to 0.007 µM in data set [1] (biochemical DNA-PK assay) and 0.5 to 5 µM in data set [2] (setting [4]). In addition, the Ki in data set [3] (setting [6]) fell in the range of 15 to 25 µM.
The like results for `OC(c1ccc(F)c(-c2ncnc3cc(N4CCOCC4)ccc23)c1)c1nnc2ccccn12` (stereo not drawn) [Example 343, [4-Fluoro-3-(7-morpholin-4-yl-quinazolin-4-yl)-phenyl]-[1,2,4]-triazolo[4,3-a]pyridin-3-ylmethanol] were, in that order, under 0.003 µM, 0.5 to 5 µM and 15 to 25 µM.
On to `COc1ccc(C(O)c2cc(-c3ncnc4cc(N5CCOCC5)ccc34)c(F)cc2F)c(F)c1` (stereo not drawn) [Example 124, [2,4-Difluoro-5-(7-morpholin-4-yl-quinazolin-4-yl)-phenyl]-(2-fluoro-4-methoxy-phenyl)methanol], for which the IC50 fell in the range of 0.007 to 0.03 µM in data set [1] (enzymatic, 5 μM ATP) and 0.5 to 5 µM in data set [2] (setting [7]). The Ki in data set [3] (setting [9]) is under 10 µM.
In the case of `OC(c1cc(-c2ncnc3cc(N4CCOCC4)ccc23)ccc1Cl)c1ncncc1F` (stereo not drawn) [Example 390, [2-Chloro-5-(7-morpholin-4-yl-quinazolin-4-yl)-phenyl]-(5-fluoro-pyrimidin-4-yl)-methanol], the IC50 is 0.003 to 0.007 µM in data set [1] (biochemical DNA-PK assay) and 0.5 to 5 µM in data set [2] (setting [4]). Also, the Ki in data set [3] (setting [6]) was in the range of 15 to 25 µM.
`NC(=O)C(c1cc(-c2ncnc3cc(N4CCOCC4)ccc23)c(F)cc1F)c1nccn2cccc12` (stereo not drawn) [Example 348, 2-[2,4-Difluoro-5-(7-morpholin-4-yl-quinazolin-4-yl)-phenyl]-2-pyrrolo-[1,2-a]pyrazin-1-yl-acetamide]: the IC50 in data set [1] (biochemical DNA-PK assay) is under 0.003 µM; in data set [2] (setting [4]), 0.5 to 5 µM. For the same molecule, the Ki in data set [3] (setting [6]) is 10 to 15 µM.
In the case of `OC(c1ccc(F)c(-c2ncnc3cc(N4CCOCC4)ncc23)c1)c1nccs1` (stereo not drawn) [Example 140, [4-Fluoro-3-(7-morpholin-4-yl-pyrido[4,3-d}-pyrimidin-4-yl)-phenyl]thiazol-2-yl-methanol], the IC50 was over 0.03 µM in data set [1] (Table 5) and 10 to 30 µM in data set [2] (Table 5, HCT116 cells). Besides, the Ki in data set [3] (Ki [Kv1.11 hERG], Table 5) lay within 15 to 25 µM.
`OC(c1cc(-c2ncnc3cc(N4CCOCC4)ccc23)c(F)cc1F)c1nncc2ccoc12` (stereo not drawn) [Example 336, [2,4-Difluoro-5-(7-morpholin-4-yl-quinazolin-4-yl)-phenyl]furo[2,3-d}-pyridazin-7-yl-methanol]: the IC50 in data set [1] (biochemical DNA-PK assay) was under 0.003 µM; in data set [2] (setting [4]), under 0.5 µM. Moreover, in data set [3] (setting [5]), the Ki was over 25 µM.
The like results for `COc1ccc(C(O)c2cc(-c3ncnc4cc(N5CCOCC5)cnc34)c(F)cc2Cl)nn1` (stereo not drawn) [Example 228, [2-Chloro-4-fluoro-5-(7-morpholin-4-yl-pyrido[3,2-d}-pyrimidin-4-yl)-phenyl]-(6-methoxy-pyridazin-3-yl)-methanol] were, in that order, over 0.03 µM, 10 to 30 µM and over 25 µM.
Take `CCn1nc(C(O)c2cc(-c3ncnc4cc(N5CCOCC5)ccc34)c(F)cc2Cl)ccc1=O` (stereo not drawn) [Example 96, 6{[2-Chloro-4-fluoro-5-(7-morpholin-4-yl-quinazolin-4-yl)phenyl]-hydroxymethyl}-2-ethyl-2H-pyridazin-3-one]: the IC50 in data set [1] (enzymatic, 5 μM ATP) fell in the range of 0.007 to 0.03 µM; in data set [2] (setting [7]) it was 0.5 to 5 µM. Further, the Ki in data set [3] (setting [9]) is over 25 µM.
Consider `COc1cncnc1C(O)c1cc(-c2ncnc3cc(N4CCOCC4)ccc23)ccc1Cl` (stereo not drawn) [Example 408, [2-Chloro-5-(7-morpholin-4-yl-quinazolin-4-yl)-phenyl]-(5-methoxy-pyrimidin-4-yl)-methanol], for which the IC50 in data set [1] (biochemical DNA-PK assay) fell in the range of 0.003 to 0.007 µM; in data set [2] (setting [4]) it was 0.5 to 5 µM. Moreover, the Ki in data set [3] (setting [6]) is 10 to 15 µM.
For `COc1cnc(C(O)c2ccc(F)c(-c3ncnc4cc(N5CCOCC5)ccc34)c2)cn1` (stereo not drawn) [Example 52, [4-Fluoro-3-(7-morpholin-4-yl-quinazolin-4-yl)phenyl]-(5-methoxy-pyrazin-2-yl)methanol], the IC50 in data set [1] (enzymatic, 5 μM ATP) fell in the range of 0.003 to 0.007 µM; in data set [2] (setting [7]), 5 to 10 µM. Besides, the Ki in data set [3] (setting [9]) was over 25 µM.
Regarding `C#CC(O)(c1ccc(OC)nn1)c1cc(-c2ncnc3cc(N4CCOCC4)ccc23)c(F)cc1Cl` (stereo not drawn) [Example 122, 1-[2-Chloro-4-fluoro-5-(7-morpholin-4-yl-quinazolin-4-yl)-phenyl]-1-(6-methoxy-pyridazin-3-yl)-prop-2-yn-1-ol], the IC50 in data set [1] (enzymatic, 5 μM ATP) was in the range of 0.007 to 0.03 µM; in data set [2] (setting [7]) it was 0.5 to 5 µM. In data set [3] (setting [8]), this molecule yielded a Ki of 10 to 15 µM.
Consider `Cc1cncnc1C(C(N)=O)c1cc(-c2ncnc3cc(N4CCOCC4)ccc23)ccc1Cl` (stereo not drawn) [Example 378, 2-[2-Chloro-5-(7-morpholin-4-yl-quinazolin-4-yl)-phenyl]-2-(5-methyl-pyrimidin-4-yl)-acetamide], for which the IC50 in data set [1] (biochemical DNA-PK assay) lay in the range of 0.003 to 0.007 µM; in data set [2] (setting [4]) it was 0.5 to 5 µM. The Ki in data set [3] (setting [5]) is over 25 µM.
Regarding `OCCOc1ccc(C(O)c2cc(-c3ncnc4cc(N5CCOCC5)ccc34)c(F)cc2Cl)nn1` (stereo not drawn) [Example 116, 2-(6-{[2-Chloro-4-fluoro-5-(7-morpholin-4-yl-quinazolin-4-yl)-phenyl]hydroxy-methyl}pyridazin-3-yl-oxy)ethanol], the concentration for half-maximal inhibition (IC50) in data set [1] (enzymatic, 5 μM ATP) is under 0.003 µM; in data set [2] (setting [7]), 0.5 to 5 µM. Moreover, the Ki in data set [3] (setting [9]) was over 25 µM.
Turning to `OC(c1cc(-c2ncnc3cc(N4CCOCC4)ccc23)c(F)cc1F)c1nccnc1OC(F)F` (stereo not drawn) [Example 449, (3-Difluoromethoxy-pyrazin-2-yl)-[2,4-difluoro-5-(7-morpholin-4-yl-quinazolin-4-yl)-phenyl]methanol], the half-inhibitory concentration (IC50) in data set [1] (biochemical DNA-PK assay) was under 0.003 µM; in data set [2] (setting [4]), 0.5 to 5 µM. In data set [3] (setting [5]), the Ki was over 25 µM.
For the molecule `COc1cncnc1C(O)c1cc(-c2ncnc3cc(N4CCOCC4)ccc23)c(F)cc1Cl` (stereo not drawn) [Example 447, [2-Chloro-4-fluoro-5-(7-morpholin-4-yl-quinazolin-4-yl)-phenyl]-(5-methoxy-pyrimidin-4-yl)-methanol], the IC50 was under 0.003 µM in data set [1] (biochemical DNA-PK assay) and 0.5 to 5 µM in data set [2] (setting [4]). This molecule had a Ki in data set [3] (setting [6]) of 10 to 15 µM.
In the case of `OCCOc1nccnc1C(O)c1ccc(F)c(-c2ncnc3cc(N4CCOCC4)ccc23)c1` (stereo not drawn) [Example 105, 2-(3-{[4-fluoro-3-(7-morpholin-4-yl-quinazolin-4-yl)-phenyl]hydroxy-methyl}pyrazin-2-yl-oxy)ethanol], the IC50 in data set [1] (enzymatic, 5 μM ATP) fell in the range of 0.007 to 0.03 µM; in data set [2] (setting [7]), 10 to 30 µM. The inhibition constant (Ki) in data set [3] (setting [9]) is over 25 µM.
Regarding `COc1cnc(Cl)c(C(O)c2ccc(F)c(-c3ncnc4cc(N5CCOCC5)ccc34)c2)c1` (stereo not drawn) [Example 22, (2-Chloro-5-methoxy-pyridin-3-yl)-[4-fluoro-3-(7-morpholin-4-yl-quinazolin-4-yl)phenyl]-methanol], the IC50 is under 0.003 µM in data set [1] (enzymatic, 5 μM ATP) and under 0.5 µM in data set [2] (setting [7]). The Ki in data set [3] (setting [9]) was under 10 µM.
As to `COc1nnc(C(O)c2cc(-c3ncnc4cc(N5CCOCC5)ccc34)c(F)cc2Cl)cc1C` (stereo not drawn) [Example 110, [2-Chloro-4-fluoro-5-(7-morpholin-4-yl-quinazolin-4-yl)-phenyl]-(6-methoxy-5-methylpyridazin-3-yl)methanol], the IC50 is 0.007 to 0.03 µM in data set [1] (enzymatic, 5 μM ATP) and 0.5 to 5 µM in data set [2] (setting [7]). In data set [3] (setting [8]), this molecule displayed a Ki of 10 to 15 µM.
Consider `NC(=O)C(c1cncc(Cl)c1)c1ccc(F)c(-c2ncnc3cc(N4CCOCC4)ccc23)c1` (stereo not drawn) [Example 297, 2-(5-Chloro-pyridin-3-yl)-2-[4-fluoro-3-(7-morpholin-4-yl-quinazolin-4-yl)-phenyl]acetamide], for which the results for the IC50 in data set [1] (biochemical DNA-PK assay) and in data set [2] (setting [4]) were 0.007 to 0.03 µM and 10 to 30 µM, respectively. In data set [3] (setting [6]), this molecule displayed an inhibitory constant (Ki) of 10 to 15 µM.
